{"source": "patent US4238507A", "about": "“Pharmacological compound with immunopotentiating activity and production and uses thereof” (Zaidan Hojin Biseibutsu Kagaku Kenkyu Kai, priority 1979, dated 1980)", "key": {"alkaline phosphatase": {"test_system": "alkaline phosphatase", "details": "literature; cited from earlier work"}, "[1]": {"test_system": "cellular immunity (cell-mediated immunity)", "assay": "Delayed-Type Hypersensitivity (D.T.H.) footpad swelling, effect on cellular immunity in mice immunized with sheep red blood cells", "format": "in vivo, ddY mouse", "details": "for Degree of swelling: left hind footpad, 24 hours after elicitation", "procedure": "In order to evaluate the immunopotentiating properties of the compound (I) of this invention, the effect of the compound (I) on cellular immunity (cell-mediated immunity) was tested according to a known Delayed-Type Hypersensitivity (D.T.H.) technique (see P. H. Lagrange, G. B. Mackaness and T. E. Mille, \"J. Exp. Med\", 139, 1529-1539 (1974)) using mice immunized with sheep red blood cells as antigen.\nThus, 10^8 sheep red blood cells (SRBC) suspended in 0.05 ml of physiological saline were subcutaneously injected at the time of immunization to the right hind footpad of each dd/.UPSILON. mouse under test (female, 6 weeks old) to establish delayed-type hypersensitivity. Simultaneously with the immunization, a varying dose of the compound (I) was intraperitoneally injected or orally administered into each test mouse. Four days later, 10^8 sheep red blood cells were subcutantaneously injected into the left hind footpad of each test mouse for elicitation of the D.T.H. response. 24 hours after the elicitating injection, the thickness of the left hind footpad was measured to evaluate the degree of the swelling in the footpad. The degree of the swelling serves to estimate the cellular immunity involved. In the Table, the swelling degree is expressed in terms of the values calculated by the equation: [formula]"}, "[2]": {"assay": "acute toxicity (LD50), intraperitoneal injection in mice", "details": "mouse, in vivo, ip; intraperitoneally injected into mice"}, "[3]": {"assay": "stability compared with forphenicine", "format": "physicochemical", "details": "relative to forphenicine"}, "immune response": {"test_system": "immune response", "assay": "immunopotentiating activity upon oral administration compared with forphenicine", "format": "in vivo", "details": "relative to forphenicine"}}, "data": [{"molecule": "NC(C(=O)O)c1ccc(C=O)c(O)c1", "note": "(stereo not shown) [Forphenicine, forphenicine]", "values": [{"measurement": "inhibition of alkaline phosphatase", "setting": "alkaline phosphatase", "result": "strong inhibitor of alkaline phosphatase"}]}, {"molecule": "NC(C(=O)O)c1ccc(CO)c(O)c1", "note": "(stereo not shown) [compound (I), forphenicinol]", "values": [{"measurement": "Degree of swelling", "setting": "[1]; i.p. injection, 0.1 μg/mouse", "result": 183}, {"measurement": "Degree of swelling", "setting": "[1]; i.p. injection, 1 μg/mouse", "result": 159}, {"measurement": "Degree of swelling", "setting": "[1]; i.p. injection, 10 μg/mouse", "result": 148}, {"measurement": "Degree of swelling", "setting": "[1]; i.p. injection, 100 μg/mouse", "result": 131}, {"measurement": "potentiating effect on establishment of cellular immunity", "setting": "[1]; intraperitoneal injection or oral administration, wide range of dosages", "result": "intensive potentiating effect"}, {"measurement": "Degree of swelling", "setting": "[1]; oral administration, 0.1 μg/mouse", "result": 139}, {"measurement": "Degree of swelling", "setting": "[1]; oral administration, 1 μg/mouse", "result": 133}, {"measurement": "Degree of swelling", "setting": "[1]; oral administration, 10 μg/mouse", "result": 191}, {"measurement": "Degree of swelling", "setting": "[1]; oral administration, 100 μg/mouse", "result": 166}, {"measurement": "LD50", "setting": "[2]", "result": "> 500", "unit": "mg/kg"}, {"measurement": "stability", "setting": "[3]", "result": "more stable than forphenicine"}, {"measurement": "activity upon oral administration", "setting": "immune response", "result": "higher activity than forphenicine"}]}]}
